From ChEMBL document CHEMBL1909608, “Actinopolysporins A-C and tubercidin as a Pdcd4 stabilizer from the halophilic actinomycete Actinopolyspora erythraea YIM 90600” (J Nat Prod, 2011)
Active and inactive are the calls of the source. The rule behind the calls is not given here.

Experiments:
Type in all cases: cell-based
[1] = target: T1, Programmed cell death protein 4 (Homo sapiens) (UniProt Q53EL6); experiment: Stabilization of Pdcd4 expressed in human HEK293 cells assessed as inhibition of TPA-induced degradation by luciferase reporter assay
T1 sequence (whole entry): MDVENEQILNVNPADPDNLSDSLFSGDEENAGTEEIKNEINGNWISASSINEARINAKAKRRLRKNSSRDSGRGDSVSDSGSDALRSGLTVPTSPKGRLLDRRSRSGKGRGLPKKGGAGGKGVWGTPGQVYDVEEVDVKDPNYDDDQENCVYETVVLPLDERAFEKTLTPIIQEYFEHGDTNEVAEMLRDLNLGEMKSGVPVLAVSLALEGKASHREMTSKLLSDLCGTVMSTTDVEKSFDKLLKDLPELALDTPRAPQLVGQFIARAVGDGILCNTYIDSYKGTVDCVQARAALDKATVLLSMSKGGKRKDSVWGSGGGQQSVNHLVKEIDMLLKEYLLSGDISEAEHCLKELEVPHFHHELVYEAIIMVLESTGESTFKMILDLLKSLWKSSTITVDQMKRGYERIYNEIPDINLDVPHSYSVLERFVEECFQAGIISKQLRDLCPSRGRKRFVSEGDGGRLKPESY

[2] = target: T1, Programmed cell death protein 4 (Homo sapiens); experiment: Stabilization of Pdcd4 expressed in TPA-stimulated human HEK293 cells at 2.5 uM by luciferase reporter assay
[3] = system: HEK293; experiment: Cytotoxicity against human HEK293 cells

Q: Which inhibition [1] does the source give for `CCC(=O)/C(C)=C/C(C)CC(C)CC(C)(O)CC` (stereo not given) here?
A: The inhibition was “inactive”.

Q: For `COC(=O)/C(C)=C/C(C)CC(C)CC(C)(O)CC(C)O` (stereo not given), which inhibition [1] is on record?
A: The inhibition was “inactive”.

Q: Which inhibition [1] does the source give for `COC(=O)/C(C)=C/C(C)CC(C)CC(C)(O)C(C)O` (stereo not given) here?
A: Its inhibition is “inactive”.

Q: What does the source list for `Nc1ncnc2c1ccn2[C@@H]1O[C@H](CO)[C@@H](O)[C@H]1O` [TUBERCIDIN]?
A: max activation [2]: 94.2%; Activity [3]: > 2.5 µM
